Values joined by “and” are separate entries in the source; they are usually repeats but may differ in a detail not shown here. Equal entries are not always repeated. Inconclusive results and toxic doses are left out.
Test system: P388 leukemia ip, CD2F1 mice, survival T/C
Experiment: NCI In Vivo Anticancer Drug Screen. Data for tumor model P388 Leukemia (intraperitoneal) in CD2F1 (CDF1) mice
Settings: endpoint: median survival time, higher = longer survival
Procedure, shortened: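 Mice carrying the transplanted tumor received test compound or vehicle. Survival was recorded in each group, and the value is the treated-group measurement divided by that of the vehicle-treated control group.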

[1] = dose: 12.5 mg/kg/injection, schedule: Q01DX009 (ip), vehicle: saline
[2] = dose: 60.0 mg/kg/injection, schedule: Q01DX005 (ip), vehicle: saline with Tween-80
[3] = dose: 120.0 mg/kg/injection, schedule: Q01DX005 (ip), vehicle: saline with Tween-80
[4] = dose: 240.0 mg/kg/injection, schedule: Q01DX005 (ip), vehicle: saline with Tween-80

O=P1(N(CCCl)CCCl)NCCCO1 (stereo not drawn)
T/C (dose: 4.0 mg/kg/injection, schedule: Q01DX009 (ip), vehicle: saline): 116 % of control and 122 % of control
T/C (dose: 6.25 mg/kg/injection, schedule: Q01DX009 (ip), vehicle: saline): 150 % of control and 151 % of control
T/C (dose: 8.0 mg/kg/injection, schedule: Q01DX009 (ip), vehicle: saline): 150 % of control
T/C (dose: 10.0 mg/kg/injection, schedule: Q04DX003 (iv), vehicle: saline): 119 % of control
T/C [1]: 153 % of control and 185 % of control and 192 % of control
T/C (dose: 15.0 mg/kg/injection, schedule: Q04DX003 (ip), vehicle: saline): 150 % of control
T/C (dose: 16.0 mg/kg/injection, schedule: Q01DX009 (ip), vehicle: saline): 183 % of control and 188 % of control
T/C (dose: 16.2 mg/kg/injection, schedule: Q04DX003 (ip), vehicle: saline): 153 % of control
T/C (dose: 20.0 mg/kg/injection, schedule: Q01DX009 (ip), vehicle: saline): 187 % of control
T/C (dose: 20.0 mg/kg/injection, schedule: Q04DX003 (ip), vehicle: water): 164 % of control
T/C (dose: 20.0 mg/kg/injection, schedule: Q04DX003 (iv), vehicle: saline): 158 % of control
T/C (dose: 22.2 mg/kg/injection, schedule: Q01DX009 (ip), vehicle: saline): 213 % of control
T/C (dose: 25.0 mg/kg/injection, schedule: Q04DX003 (ip), vehicle: water): 110 % of control
T/C (dose: 27.0 mg/kg/injection, schedule: Q04DX003 (ip), vehicle: saline): 178 % of control
T/C (dose: 28.8 mg/kg/injection, schedule: Q01DX005 (ip), vehicle: saline): 190 % of control
T/C (dose: 30.0 mg/kg/injection, schedule: Q01DX010 (ip), vehicle: water): 272 % of control
T/C (dose: 30.0 mg/kg/injection, schedule: Q04DX003 (ip), vehicle: saline): 195 % of control
T/C (dose: 31.3 mg/kg/injection, schedule: Q01DX001 (iv), vehicle: saline): 174 % of control
T/C (dose: 32.4 mg/kg/injection, schedule: Q04DX002 (ip), vehicle: saline): 163 % of control and 178 % of control
T/C (dose: 33.3 mg/kg/injection, schedule: Q01DX009 (ip), vehicle: saline): 261 % of control
T/C (dose: 36.0 mg/kg/injection, schedule: Q01DX009 (ip), vehicle: saline): 258 % of control
T/C (dose: 38.9 mg/kg/injection, schedule: Q04DX003 (ip), vehicle: saline): 227 % of control
T/C (dose: 40.0 mg/kg/injection, schedule: Q04DX003 (ip), vehicle: saline): 197 % of control and 204 % of control
T/C (dose: 40.0 mg/kg/injection, schedule: Q04DX003 (ip), vehicle: water): 225 % of control
T/C (dose: 40.0 mg/kg/injection, schedule: Q04DX003 (iv), vehicle: saline): 203 % of control
T/C (dose: 45.0 mg/kg/injection, schedule: Q01DX010 (ip), vehicle: water): 240 % of control
T/C (dose: 45.0 mg/kg/injection, schedule: Q04DX003 (ip), vehicle: saline): 324 % of control
T/C (dose: 48.0 mg/kg/injection, schedule: Q01DX005 (ip), vehicle: saline): 240 % of control
T/C (dose: 48.0 mg/kg/injection, schedule: Q01DX009 (ip), vehicle: saline): 118 % of control
T/C (dose: 50.0 mg/kg/injection, schedule: Q01DX001 (ip), vehicle: water): 157 % of control and 160 % of control
T/C (dose: 50.0 mg/kg/injection, schedule: Q01DX009 (ip), vehicle: water): 103 % of control
T/C (dose: 50.0 mg/kg/injection, schedule: Q04DX003 (ip), vehicle: water): 198 % of control and 214 % of control
T/C (dose: 54.0 mg/kg/injection, schedule: Q04DX002 (ip), vehicle: saline): 209 % of control and 213 % of control
T/C (dose: 60.0 mg/kg/injection, schedule: Q01DX009 (ip), vehicle: saline): 99 % of control
T/C (dose: 60.0 mg/kg/injection, schedule: Q04DX003 (ip), vehicle: saline): 274 % of control
T/C (dose: 62.5 mg/kg/injection, schedule: Q01DX001 (iv), vehicle: saline): 220 % of control
T/C (dose: 64.0 mg/kg/injection, schedule: Q01DX009 (ip), vehicle: saline): 187 % of control and 194 % of control
T/C (dose: 64.8 mg/kg/injection, schedule: Q04DX003 (ip), vehicle: saline): 317 % of control
T/C (dose: 70.0 mg/kg/injection, schedule: Q04DX003 (ip), vehicle: saline): 225 % of control
T/C (dose: 73.0 mg/kg/injection, schedule: Q04DX003 (ip), vehicle: saline): 300 % of control
T/C (dose: 75.0 mg/kg/injection, schedule: Q01DX009 (ip), vehicle: saline): 157 % of control
T/C (dose: 75.0 mg/kg/injection, schedule: Q01DX010 (ip), vehicle: water): 118 % of control
T/C (dose: 75.0 mg/kg/injection, schedule: Q04DX003 (ip), vehicle: saline): 358 % of control
T/C (dose: 80.0 mg/kg/injection, schedule: Q01DX001 (ip), vehicle: saline): 155 % of control
T/C (dose: 80.0 mg/kg/injection, schedule: Q04DX003 (ip), vehicle: saline): 216 % of control and 284 % of control
T/C (dose: 80.0 mg/kg/injection, schedule: Q04DX003 (ip), vehicle: water): 269 % of control
T/C (dose: 80.0 mg/kg/injection, schedule: Q04DX003 (iv), vehicle: saline): 194 % of control
T/C (dose: 90.0 mg/kg/injection, schedule: Q04DX002 (ip), vehicle: saline): 220 % of control and 228 % of control
T/C (dose: 100.0 mg/kg/injection, schedule: Q01DX001 (ip), vehicle: water): 199 % of control and 221 % of control
T/C (dose: 100.0 mg/kg/injection, schedule: Q04DX003 (ip), vehicle: water): 288 % of control and 324 % of control
T/C (dose: 108.0 mg/kg/injection, schedule: Q04DX003 (ip), vehicle: saline): 152 % of control
T/C (dose: 119.0 mg/kg/injection, schedule: Q01DX001 (ip), vehicle: saline): 245 % of control
T/C (dose: 125.0 mg/kg/injection, schedule: Q01DX001 (iv), vehicle: saline): 350 % of control
T/C (dose: 125.0 mg/kg/injection, schedule: Q04DX003 (ip), vehicle: saline): 189 % of control and 196 % of control
T/C (dose: 150.0 mg/kg/injection, schedule: Q04DX002 (ip), vehicle: saline): 394 % of control and 409 % of control
T/C (dose: 150.0 mg/kg/injection, schedule: Q## X001 (ip), vehicle: saline): 111 % of control and 231 % of control and 260 % of control
T/C (dose: 160.0 mg/kg/injection, schedule: Q01DX001 (ip), vehicle: saline): 114 % of control and 232 % of control
T/C (dose: 165.0 mg/kg/injection, schedule: Q04DX003 (ip), vehicle: saline): 221 % of control
T/C (dose: 180.0 mg/kg/injection, schedule: Q04DX003 (ip), vehicle: saline): 118 % of control
T/C (dose: 200.0 mg/kg/injection, schedule: Q01DX001 (ip), vehicle: water): 281 % of control and 291 % of control
T/C (dose: 250.0 mg/kg/injection, schedule: Q01DX001 (ip), vehicle: saline): 98 % of control
T/C (dose: 250.0 mg/kg/injection, schedule: Q01DX001 (iv), vehicle: saline): 353 % of control
T/C (dose: 320.0 mg/kg/injection, schedule: Q01DX001 (ip), vehicle: saline): 215 % of control and 252 % of control
T/C (dose: 600.0 mg/kg/injection, schedule: Q01DX001 (ip), vehicle: water): 100 % of control

O=[N+]([O-])c1ccc(C(S(=O)(=O)Cc2ccccc2)S(=O)(=O)Cc2ccccc2)cc1
T/C (dose: 50.0 mg/kg/injection, schedule: Q01DX009 (ip), vehicle: Klucel (hydroxypropylcellulose) (HPC)): 93 % of control
T/C (dose: 100.0 mg/kg/injection, schedule: Q01DX009 (ip), vehicle: Klucel (hydroxypropylcellulose) (HPC)): 89 % of control
T/C (dose: 200.0 mg/kg/injection, schedule: Q01DX009 (ip), vehicle: Klucel (hydroxypropylcellulose) (HPC)): 90 % of control

CCCCCC(CN(C)C)C(=O)/C=C/c1ccc(O)cc1 (stereo not drawn)
T/C [1]: 88 % of control
T/C (dose: 25.0 mg/kg/injection, schedule: Q01DX009 (ip), vehicle: saline): 89 % of control
T/C (dose: 50.0 mg/kg/injection, schedule: Q01DX009 (ip), vehicle: saline): 101 % of control and 93 % of control
T/C (dose: 100.0 mg/kg/injection, schedule: Q01DX009 (ip), vehicle: saline): 113 % of control

CC(Cc1ccccc1)N(C)Cc1ccc(-c2ccccc2)o1 (stereo not drawn)
T/C [2]: 100 % of control
T/C [3]: 108 % of control
T/C [4]: 109 % of control

COC(=O)C1(CC(=O)c2cccc3ccccc23)NC(=S)NC(=O)C1C#N (stereo not drawn)
T/C [2]: 101 % of control
T/C [3]: 101 % of control
T/C [4]: 102 % of control

Cc1cccc(Cl)c1NC(=O)N(C)c1ccccc1
T/C [2]: 99 % of control
T/C [3]: 100 % of control
T/C [4]: 97 % of control

Cc1ccccc1N=Nc1c(O)n(-c2ccc(Br)cc2)c(=S)n(-c2ccccc2)c1=O
T/C (dose: 100.0 mg/kg/injection, schedule: Q01DX001 (ip), vehicle: saline with Tween-80): 98 % of control
T/C (dose: 200.0 mg/kg/injection, schedule: Q01DX001 (ip), vehicle: saline with Tween-80): 98 % of control
T/C (dose: 400.0 mg/kg/injection, schedule: Q01DX001 (ip), vehicle: saline with Tween-80): 89 % of control

Source: PubChem BioAssay AID330 (DTP/NCI, 2004)
